Measured values published in ChEMBL document CHEMBL1135183, “Design and synthesis of C-8 linked pyrrolobenzodiazepine-naphthalimide hybrids as anti-tumour agents” (2002).

Columns and labels:
Assay type in all cases: functional
[1] = test system: Panel prostate (Carcinoma cell lines); assay: Concentration of compound causing 50% lethality in Prostate cell lines was determined; details: Homo sapiens, read-out: Log LC50 (the source's name) (converted)
[2] = test system: Panel colon (Carcinoma cell lines); assay: Concentration of compound causing 50% lethality in Colon cell lines was determined; details: Homo sapiens
[3] = test system: Panel melanoma (Carcinoma cell lines); assay: Concentration of compound causing 50% lethality in Melanoma cell lines was determined; details: Homo sapiens, read-out: Log LC50 (the source's name) (converted)
[4] = test system: Panel renal (Carcinoma cell lines); assay: Concentration of compound causing 50% lethality in Renal cell lines was determined; details: Homo sapiens
[5] = test system: Panel CNS (Carcinoma cell lines); assay: Concentration of compound causing 50% lethality in CNS cell lines was determined; details: Homo sapiens, read-out: Log LC50 (the source's name) (converted)
leukaemia cell line = assay: Concentration of compound causing 50% lethality in Leukemia cell lines was determined; details: Homo sapiens, read-out: Log LC50 (the source's name) (converted)
[6] = test system: Panel breast (Carcinoma cell lines); assay: Concentration of compound causing 50% lethality in Breast cell lines was determined; details: Homo sapiens, read-out: Log LC50 (the source's name) (converted)
NSCLC = assay: Concentration of compound causing 50% lethality in Non-small-cell lung cell lines was determined; details: Homo sapiens, read-out: Log LC50 (the source's name) (converted)
[7] = test system: Panel ovarian (Carcinoma cell lines); assay: Concentration of compound causing 50% lethality in Ovarian cell lines was determined; details: Homo sapiens, read-out: Log LC50 (the source's name) (converted)

SMILES	CC50 [1] [µM]	LC50 [2] [µM]	CC50 [3] [µM]	LC50 (concentration causing 50% cell lethality) [4] [µM]	CC50 [5] [µM]	CC50 (leukaemia cell line) [µM]	CC50 [6] [µM]	CC50 (NSCLC) [µM]	CC50 [7] [µM]
COc1cc2c(cc1OCCCCCCCN1C(=O)c3cccc4cccc(c34)C1=O)N=C[C@@H]1CCCN1C2=O	> 100	38.9	37.2	93.3	> 100	> 100	43.7	45.7	87.1
COc1cc2c(cc1OCCCCCN1C(=O)c3cccc4cccc(c34)C1=O)N=C[C@@H]1CCCN1C2=O	61.7	45.7	58.9	30.9	72.4	72.4	60.3	69.2	81.3
COc1cc2c(cc1OCCCN1C(=O)c3cccc4cccc(c34)C1=O)N=C[C@@H]1CCCN1C2=O	> 100	97.7	97.7	91.2	> 100	77.6	> 100	89.1	97.7
COc1cc2c(cc1OCCCCCCCCCCCCCCCCCN1C(=O)c3cccc4cccc(c34)C1=O)N=C[C@@H]1CCCN1C2=O	66.1	75.9	64.6	81.3	51.3	61.7	85.1	83.2	77.6
COc1cc2c(cc1OCCCCCCCCCCCCCN1C(=O)c3cccc4cccc(c34)C1=O)N=C[C@@H]1CCCN1C2=O	93.3	83.2	81.3	95.5	77.6	77.6	95.5	> 100	85.1
